Results: the supplement of paper PMC10307832

What was measured:
Test in all cases: relative viability (nuclei count vs DMSO), 5 days (fraction); higher = more cells survive
[1] = tested on: 201T
Outline: (§1)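 For relative viability, nuclei counts in treated wells were divided by those in vehicle wells. Lung cancer cell lines had been pin-tool dosed in 1536-well plates the day after seeding and cultured for 5 days, then fixed and stained in one step (final 0.05% Triton X-100, 1% formaldehyde, 1 ug/ml Hoechst) and imaged at 4×. Doses were one drug alone or a fixed anchor-drug dose plus five library-drug doses (not always all listed) in √10 steps, and values are duplicate-plate medians.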

[2] = tested on: A-427
Outline: as §1

[3] = tested on: COR-L 105
Outline: as §1

[4] = tested on: COR-L23
Outline: as §1

[5] = tested on: EKVX
Outline: as §1

[6] = tested on: EMC-BAC-2
Outline: as §1

[7] = tested on: EPLC-272H
Outline: as §1

[8] = tested on: HCC-44
Outline: as §1

[9] = tested on: HCC-827
Outline: as §1

[10] = tested on: LCLC-103H
Outline: as §1

[11] = tested on: LU99A
Outline: as §1

[12] = tested on: NCI-H1437
Outline: as §1

[13] = tested on: NCI-H1666
Outline: as §1

[14] = tested on: NCI-H1792
Outline: as §1

[15] = tested on: NCI-H2009
Outline: as §1

[16] = tested on: NCI-H2023
Outline: as §1

[17] = tested on: NCI-H2087
Outline: as §1

[18] = tested on: NCI-H3122
Outline: as §1

[19] = tested on: NCI-H520
Outline: as §1

[20] = tested on: PC-14
Outline: as §1

[21] = tested on: RERF-LC-KJ
Outline: as §1

[22] = tested on: SK-LU-1
Outline: as §1

[23] = tested on: SW 1573
Outline: as §1

[24] = tested on: SW 900
Outline: as §1

[25] = tested on: ABC-1
Outline: as §1

Nc1cccc2c1CN(C1CCC(=O)NC1=O)C2=O (stereo not given) [Lenalidomide] + CC(=O)Nc1cccc(-n2c(=O)n(C3CC3)c(=O)c3c(Nc4ccc(I)cc4F)n(C)c(=O)c(C)c32)c1 [Trametinib] (partner 0.02 µM)
relative viability ([1]; first compound 0.253 µM): 0.719 | relative viability ([1]; first compound 0.8 µM): 0.754 | relative viability ([1]; first compound 2.53 µM): 0.762 | relative viability ([1]; first compound 8 µM): 0.713 | relative viability ([2]; first compound 0.253 µM): 0.731 | relative viability ([2]; first compound 0.8 µM): 0.724 | relative viability ([2]; first compound 2.53 µM): 0.825 | relative viability ([2]; first compound 8 µM): 0.765 | relative viability ([3]; first compound 0.253 µM): 0.493 | relative viability ([3]; first compound 0.8 µM): 0.471 | relative viability ([3]; first compound 2.53 µM): 0.462 | relative viability ([3]; first compound 8 µM): 0.416 | relative viability ([4]; first compound 0.253 µM): 0.613 | relative viability ([4]; first compound 0.8 µM): 0.677 | relative viability ([4]; first compound 2.53 µM): 0.678 | relative viability ([4]; first compound 8 µM): 0.508 | relative viability ([5]; first compound 0.253 µM): 0.391 | relative viability ([5]; first compound 0.8 µM): 0.32 | relative viability ([5]; first compound 2.53 µM): 0.432 | relative viability ([5]; first compound 8 µM): 0.328 | relative viability ([6]; first compound 0.253 µM): 0.888 | relative viability ([6]; first compound 0.8 µM): 0.848 | relative viability ([6]; first compound 2.53 µM): 0.922 | relative viability ([6]; first compound 8 µM): 0.747 | relative viability ([7]; first compound 0.253 µM): 0.284 | relative viability ([7]; first compound 0.8 µM): 0.272 | relative viability ([7]; first compound 2.53 µM): 0.34 | relative viability ([7]; first compound 8 µM): 0.313 | relative viability ([8]; first compound 0.253 µM): 1.08 | relative viability ([8]; first compound 0.8 µM): 0.829 | relative viability ([8]; first compound 2.53 µM): 1.11 | relative viability ([8]; first compound 8 µM): 1.05 | relative viability ([9]; first compound 0.253 µM): 0.462 | relative viability ([9]; first compound 0.8 µM): 0.594 | relative viability ([9]; first compound 2.53 µM): 0.518 | relative viability ([9]; first compound 8 µM): 0.52 | relative viability ([10]; first compound 0.253 µM): 0.687 | relative viability ([10]; first compound 0.8 µM): 0.623 | relative viability ([10]; first compound 2.53 µM): 0.656 | relative viability ([10]; first compound 8 µM): 0.617 | relative viability ([11]; first compound 0.253 µM): 0.509 | relative viability ([11]; first compound 0.8 µM): 0.537 | relative viability ([11]; first compound 2.53 µM): 0.644 | relative viability ([11]; first compound 8 µM): 0.425 | relative viability ([12]; first compound 0.253 µM): 0.523 | relative viability ([12]; first compound 0.8 µM): 0.365 | relative viability ([12]; first compound 2.53 µM): 0.611 | relative viability ([12]; first compound 8 µM): 0.486 | relative viability ([13]; first compound 0.253 µM): 0.859 | relative viability ([13]; first compound 0.8 µM): 0.765 | relative viability ([13]; first compound 2.53 µM): 0.93 | relative viability ([13]; first compound 8 µM): 0.784 | relative viability ([14]; first compound 0.253 µM): 0.445 | relative viability ([14]; first compound 0.8 µM): 0.369 | relative viability ([14]; first compound 2.53 µM): 0.59 | relative viability ([14]; first compound 8 µM): 0.366 | relative viability ([15]; first compound 0.253 µM): 0.297 | relative viability ([15]; first compound 0.8 µM): 0.28 | relative viability ([15]; first compound 2.53 µM): 0.283 | relative viability ([15]; first compound 8 µM): 0.28 | relative viability ([16]; first compound 0.253 µM): 0.554 | relative viability ([16]; first compound 0.8 µM): 0.584 | relative viability ([16]; first compound 2.53 µM): 0.444 | relative viability ([16]; first compound 8 µM): 0.504 | relative viability ([17]; first compound 0.253 µM): 0.191 | relative viability ([17]; first compound 2.53 µM): 0.28 | relative viability ([17]; first compound 8 µM): 0.186 | relative viability ([18]; first compound 0.253 µM): 0.234 | relative viability ([18]; first compound 0.8 µM): 0.246 | relative viability ([18]; first compound 2.53 µM): 0.253 | relative viability ([18]; first compound 8 µM): 0.205 | relative viability ([19]; first compound 0.253 µM): 0.732 | relative viability ([19]; first compound 0.8 µM): 0.615 | relative viability ([19]; first compound 2.53 µM): 0.835 | relative viability ([19]; first compound 8 µM): 0.452 | relative viability ([20]; first compound 0.253 µM): 0.839 | relative viability ([20]; first compound 0.8 µM): 0.722 | relative viability ([20]; first compound 2.53 µM): 0.981 | relative viability ([20]; first compound 8 µM): 0.779 | relative viability ([21]; first compound 0.253 µM): 0.875 | relative viability ([21]; first compound 0.8 µM): 0.886 | relative viability ([21]; first compound 2.53 µM): 0.915 | relative viability ([21]; first compound 8 µM): 0.85 | relative viability ([22]; first compound 0.253 µM): 0.515 | relative viability ([22]; first compound 0.8 µM): 0.443 | relative viability ([22]; first compound 2.53 µM): 0.596 | relative viability ([22]; first compound 8 µM): 0.432 | relative viability ([23]; first compound 0.253 µM): 0.583 | relative viability ([23]; first compound 0.8 µM): 0.67 | relative viability ([23]; first compound 2.53 µM): 0.583 | relative viability ([23]; first compound 8 µM): 0.596 | relative viability ([24]; first compound 2.53 µM): 1 | relative viability ([24]; first compound 8 µM): 0.76

Nc1cccc2c1CN(C1CCC(=O)NC1=O)C2=O (stereo not given) [Lenalidomide] + O=C(CCCCCCC(=O)Nc1ccccc1)NO [Vorinostat] (partner 1 µM)
relative viability ([1]; first compound 0.253 µM): 0.963 | relative viability ([1]; first compound 0.8 µM): 0.791 | relative viability ([1]; first compound 2.53 µM): 0.955 | relative viability ([1]; first compound 8 µM): 0.859 | relative viability ([2]; first compound 0.253 µM): 0.871 | relative viability ([2]; first compound 0.8 µM): 0.898 | relative viability ([2]; first compound 2.53 µM): 0.878 | relative viability ([2]; first compound 8 µM): 0.873 | relative viability ([25]; first compound 0.253 µM): 1.31 | relative viability ([25]; first compound 0.8 µM): 1.1 | relative viability ([25]; first compound 2.53 µM): 1.36 | relative viability ([25]; first compound 8 µM): 1.46 | relative viability ([3]; first compound 0.253 µM): 0.682 | relative viability ([3]; first compound 0.8 µM): 0.863 | relative viability ([3]; first compound 2.53 µM): 0.983 | relative viability ([3]; first compound 8 µM): 0.858 | relative viability ([4]; first compound 0.253 µM): 0.542 | relative viability ([4]; first compound 0.8 µM): 0.408 | relative viability ([4]; first compound 2.53 µM): 0.498 | relative viability ([4]; first compound 8 µM): 0.509 | relative viability ([5]; first compound 0.253 µM): 0.765 | relative viability ([5]; first compound 0.8 µM): 0.668 | relative viability ([5]; first compound 2.53 µM): 0.954 | relative viability ([5]; first compound 8 µM): 0.636 | relative viability ([6]; first compound 0.253 µM): 0.74 | relative viability ([6]; first compound 0.8 µM): 0.42 | relative viability ([6]; first compound 2.53 µM): 0.446 | relative viability ([6]; first compound 8 µM): 0.335 | relative viability ([7]; first compound 0.253 µM): 0.481 | relative viability ([7]; first compound 2.53 µM): 0.296 | relative viability ([7]; first compound 8 µM): 0.451 | relative viability ([8]; first compound 0.253 µM): 1.05 | relative viability ([8]; first compound 0.8 µM): 0.926 | relative viability ([8]; first compound 2.53 µM): 1.04 | relative viability ([8]; first compound 8 µM): 1.08 | relative viability ([9]; first compound 0.253 µM): 1.04 | relative viability ([9]; first compound 0.8 µM): 0.763 | relative viability ([9]; first compound 2.53 µM): 0.985 | relative viability ([9]; first compound 8 µM): 1.06 | relative viability ([10]; first compound 0.253 µM): 0.761 | relative viability ([10]; first compound 0.8 µM): 0.679 | relative viability ([10]; first compound 2.53 µM): 0.818 | relative viability ([10]; first compound 8 µM): 0.616 | relative viability ([11]; first compound 0.253 µM): 0.461 | relative viability ([11]; first compound 0.8 µM): 0.425 | relative viability ([11]; first compound 2.53 µM): 0.559 | relative viability ([11]; first compound 8 µM): 0.263 | relative viability ([12]; first compound 0.253 µM): 0.825 | relative viability ([12]; first compound 0.8 µM): 0.85 | relative viability ([12]; first compound 2.53 µM): 0.934 | relative viability ([12]; first compound 8 µM): 0.843 | relative viability ([13]; first compound 0.253 µM): 1.05 | relative viability ([13]; first compound 0.8 µM): 1.01 | relative viability ([13]; first compound 2.53 µM): 1.14 | relative viability ([13]; first compound 8 µM): 1.04 | relative viability ([15]; first compound 0.253 µM): 0.686 | relative viability ([15]; first compound 0.8 µM): 0.72 | relative viability ([15]; first compound 2.53 µM): 0.852 | relative viability ([15]; first compound 8 µM): 0.769 | relative viability ([16]; first compound 0.253 µM): 0.637 | relative viability ([16]; first compound 0.8 µM): 0.732 | relative viability ([16]; first compound 2.53 µM): 0.652 | relative viability ([16]; first compound 8 µM): 0.468 | relative viability ([17]; first compound 0.253 µM): 0.809 | relative viability ([17]; first compound 2.53 µM): 0.84 | relative viability ([17]; first compound 8 µM): 0.56 | relative viability ([18]; first compound 0.253 µM): 0.723 | relative viability ([18]; first compound 0.8 µM): 1.05 | relative viability ([18]; first compound 2.53 µM): 0.95 | relative viability ([18]; first compound 8 µM): 0.966 | relative viability ([19]; first compound 0.253 µM): 0.738 | relative viability ([19]; first compound 0.8 µM): 0.74 | relative viability ([19]; first compound 2.53 µM): 0.731 | relative viability ([19]; first compound 8 µM): 0.698 | relative viability ([20]; first compound 0.253 µM): 0.745 | relative viability ([20]; first compound 0.8 µM): 0.713 | relative viability ([20]; first compound 2.53 µM): 0.826 | relative viability ([20]; first compound 8 µM): 0.922 | relative viability ([21]; first compound 0.253 µM): 0.574 | relative viability ([21]; first compound 0.8 µM): 0.605 | relative viability ([21]; first compound 2.53 µM): 0.71 | relative viability ([21]; first compound 8 µM): 0.686 | relative viability ([22]; first compound 0.253 µM): 0.763 | relative viability ([22]; first compound 0.8 µM): 0.877 | relative viability ([22]; first compound 2.53 µM): 0.909 | relative viability ([22]; first compound 8 µM): 0.759 | relative viability ([23]; first compound 0.253 µM): 0.456 | relative viability ([23]; first compound 0.8 µM): 0.822 | relative viability ([23]; first compound 2.53 µM): 0.974 | relative viability ([23]; first compound 8 µM): 0.759 | relative viability ([24]; first compound 2.53 µM): 0.679 | relative viability ([24]; first compound 8 µM): 0.429
